Data published in PubChem BioAssay AID248 (DTP/NCI, 2004).
“And” between values parts separate entries of the source, which are not always exact repeats. Identical values can stand only once. Toxic doses and inconclusive results are not listed. Rule as the data show it: active = T/C of 150% or more; inactive = T/C below 125%.

System: L1210 leukemia ip in BDF1 mice, survival T/C
Experiment: NCI In Vivo Anticancer Drug Screen. Data for tumor model L1210 Leukemia (intraperitoneal) in B6D2F1 (BDF1) mice
Conditions: endpoint: mean survival time, higher = longer survival
How it was run: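 Value reflects the ratio of survival in compound-treated mice to survival in vehicle-treated controls, with both groups carrying the same transplanted tumor.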

[1] = dose: 100.0 mg/kg/injection, schedule: Q01DX001 (ip), vehicle: saline
[2] = dose: 200.0 mg/kg/injection, schedule: Q01DX001 (ip), vehicle: saline
[3] = dose: 400.0 mg/kg/injection, schedule: Q01DX001 (ip), vehicle: saline
[4] = dose: 100.0 mg/kg/injection, schedule: Q01DX009 (ip), vehicle: Klucel (hydroxypropylcellulose) (HPC)
[5] = dose: 100.0 mg/kg/injection, schedule: Q04DX003 (ip), vehicle: Klucel (hydroxypropylcellulose) (HPC)
[6] = dose: 200.0 mg/kg/injection, schedule: Q01DX009 (ip), vehicle: Klucel (hydroxypropylcellulose) (HPC)
[7] = dose: 200.0 mg/kg/injection, schedule: Q04DX003 (ip), vehicle: Klucel (hydroxypropylcellulose) (HPC)
[8] = dose: 400.0 mg/kg/injection, schedule: Q01DX009 (ip), vehicle: Klucel (hydroxypropylcellulose) (HPC)
[9] = dose: 400.0 mg/kg/injection, schedule: Q04DX003 (ip), vehicle: Klucel (hydroxypropylcellulose) (HPC)
[10] = dose: 100.0 mg/kg/injection, schedule: Q01DX009 (ip), vehicle: saline with Tween-80
[11] = dose: 200.0 mg/kg/injection, schedule: Q01DX009 (ip), vehicle: saline with Tween-80
[12] = dose: 50.0 mg/kg/injection, schedule: Q01DX009 (ip), vehicle: Klucel (hydroxypropylcellulose) (HPC)
[13] = dose: 400.0 mg/kg/injection, schedule: Q01DX009 (ip), vehicle: saline with Tween-80
[14] = dose: 100.0 mg/kg/injection, schedule: Q01DX009 (ip), vehicle: saline
[15] = dose: 200.0 mg/kg/injection, schedule: Q01DX009 (ip), vehicle: saline
[16] = dose: 400.0 mg/kg/injection, schedule: Q01DX009 (ip), vehicle: saline

Measured: T/C

CCN(C(=O)c1ccc2c3c(ccc(C(=O)N(CC)c4ccccc4)c13)CC2)c1ccccc1
inactive: [1] 104 % of control | [2] 104 % of control | [3] 95 % of control

Cc1cc(C)c(NC(=O)NC(C)C)c(C)c1
inactive: [4] 104 % of control | [5] 98 % of control | [6] 101 % of control | [7] 105 % of control | [8] 91 % of control | [9] 91 % of control

CC(NC(=O)OCc1ccccc1)C(=O)NCCC(N)=O (stereo not given)
inactive: [10] 91 % of control | [11] 88 % of control

C(=N\N=C\c1ccco1)/c1ccco1
inactive: dose: 100.0 mg/kg/injection, schedule: Q01DX001 (ip), vehicle: saline with Tween-80 98 % of control and 103 % of control | dose: 200.0 mg/kg/injection, schedule: Q01DX001 (ip), vehicle: saline with Tween-80 98 % of control

N#CC(C(=O)O)C1(C(C#N)C(=O)O)CCN(Cc2ccccc2)CC1 (stereo not given)
inactive: dose: 75.0 mg/kg/injection, schedule: Q01DX001 (ip), vehicle: carboxymethylcellulose (CMC) 96 % of control | dose: 150.0 mg/kg/injection, schedule: Q01DX001 (ip), vehicle: carboxymethylcellulose (CMC) 100 % of control | dose: 300.0 mg/kg/injection, schedule: Q01DX001 (ip), vehicle: carboxymethylcellulose (CMC) 102 % of control

COc1ccc(-n2c(=O)c(N=Nc3ccc(Br)cc3)c(O)n(-c3ccc(I)cc3)c2=S)cc1
inactive: dose: 50.0 mg/kg/injection, schedule: Q01DX001 (ip), vehicle: Klucel (hydroxypropylcellulose) (HPC) 103 % of control | dose: 100.0 mg/kg/injection, schedule: Q01DX001 (ip), vehicle: Klucel (hydroxypropylcellulose) (HPC) 100 % of control | dose: 200.0 mg/kg/injection, schedule: Q01DX001 (ip), vehicle: Klucel (hydroxypropylcellulose) (HPC) 91 % of control

CCCCCCCCC(=O)N1CCN(C(=O)CCCCCCCC)C1
inactive: dose: 30.0 mg/kg/injection, schedule: Q01DX001 (ip), vehicle: saline 96 % of control | [1] 96 % of control | dose: 300.0 mg/kg/injection, schedule: Q01DX001 (ip), vehicle: saline 91 % of control

CC(=O)Nc1ccc(S(=O)(=O)c2ccc(NC(C)=O)cc2)cc1
inactive: [12] 103 % of control | [4] 93 % of control | [6] 97 % of control

N#Cc1ccccc1C(Cl)(Cl)Cl
inactive: dose: 100.0 mg/kg/injection, schedule: Q04DX002 (ip), vehicle: Klucel (hydroxypropylcellulose) (HPC) 100 % of control | dose: 200.0 mg/kg/injection, schedule: Q04DX002 (ip), vehicle: Klucel (hydroxypropylcellulose) (HPC) 106 % of control | dose: 400.0 mg/kg/injection, schedule: Q04DX002 (ip), vehicle: Klucel (hydroxypropylcellulose) (HPC) 100 % of control

CC(=O)c1c(O)cc(O)cc1O
inactive: [10] 96 % of control | [11] 91 % of control | [13] 98 % of control

O=C(CBr)c1ccc(/C=C/c2ccc(Cl)cc2)cc1
inactive: [10] 94 % of control

Cc1ccc(Nc2nc(N)nc(N)c2N)c(C)c1
inactive: dose: 12.0 mg/kg/injection, schedule: Q01DX Z (ip), vehicle: saline 110 % of control

O=C(O)C1C2CC3C(C2)C31 (stereo not given)
inactive: dose: 100.0 mg/kg/injection, schedule: Q04DX003 (ip), vehicle: other 97 % of control | dose: 200.0 mg/kg/injection, schedule: Q04DX003 (ip), vehicle: other 98 % of control | dose: 400.0 mg/kg/injection, schedule: Q04DX003 (ip), vehicle: other 88 % of control

Cc1cccc(C(=O)OCc2ccccc2CN2CCCC2)c1
inactive: dose: 100.0 mg/kg/injection, schedule: Q04DX002 (ip), vehicle: saline 93 % of control | dose: 200.0 mg/kg/injection, schedule: Q04DX002 (ip), vehicle: saline 104 % of control

CC(=C(C#N)C#N)c1csc2ccccc12
inactive: dose: 100.0 mg/kg/injection, schedule: Q01DX001 (ip), vehicle: carboxymethylcellulose (CMC) 97 % of control | dose: 200.0 mg/kg/injection, schedule: Q01DX001 (ip), vehicle: carboxymethylcellulose (CMC) 87 % of control | dose: 400.0 mg/kg/injection, schedule: Q01DX001 (ip), vehicle: carboxymethylcellulose (CMC) 92 % of control

O=C(NO)c1ccc([N+](=O)[O-])cc1
inactive: [4] 92 % of control | dose: 180.0 mg/kg/injection, schedule: Q01DX015 (ip), vehicle: water 101 % of control | [6] 103 % of control | dose: 270.0 mg/kg/injection, schedule: Q01DX015 (ip), vehicle: water 107 % of control and 117 % of control and 119 % of control | dose: 400.0 mg/kg/injection, schedule: Q01DX001 (ip), vehicle: water 97 % of control | [8] 109 % of control | dose: 600.0 mg/kg/injection, schedule: Q01DX001 (ip), vehicle: water 97 % of control

CCC(=O)Nc1cccc2ccccc12
inactive: dose: 12.5 mg/kg/injection, schedule: Q01DX009 (ip), vehicle: Klucel (hydroxypropylcellulose) (HPC) 104 % of control | dose: 25.0 mg/kg/injection, schedule: Q01DX009 (ip), vehicle: Klucel (hydroxypropylcellulose) (HPC) 112 % of control | [12] 101 % of control and 89 % of control | [5] 95 % of control | [7] 106 % of control

C/C(=N\O)c1ccccc1C
inactive: [5] 101 % of control | [7] 106 % of control | [9] 93 % of control

Cc1ccc2c(c1)P(=O)(O)c1cc(F)ccc1O2
inactive: dose: 50.0 mg/kg/injection, schedule: Q01DX009 (ip), vehicle: saline 105 % of control | [14] 112 % of control | [15] 112 % of control | [16] 108 % of control

CCOC(=O)CNNC(=O)C(O)C(O)C(O)C(O)CO (stereo not given)
inactive: [1] 87 % of control | [2] 100 % of control | [3] 100 % of control

Oc1cc(O)c2c(c1)OC(O)(c1ccc(O)c(O)c1)C(O)O2 (stereo not given) (tested in a mixture with another compound)
inactive: dose: 50.0 mg/kg/injection, schedule: Q01DX009 (ip), vehicle: saline with Tween-80 104 % of control | [10] 95 % of control | [11] 102 % of control

O=c1[nH]cc(-c2ccccc2)c(=O)[nH]1
inactive: [14] 98 % of control | dose: 100.0 mg/kg/injection, schedule: Q04DX003 (ip), vehicle: saline 95 % of control | [15] 104 % of control | dose: 200.0 mg/kg/injection, schedule: Q04DX003 (ip), vehicle: saline 95 % of control | [16] 104 % of control | dose: 400.0 mg/kg/injection, schedule: Q04DX003 (ip), vehicle: saline 101 % of control

CCC(C)C(C(=O)OCCN(C)C)c1ccccc1 (stereo not given)
inactive: dose: 100.0 mg/kg/injection, schedule: Q04DX003 (ip), vehicle: saline with Tween-80 98 % of control | dose: 200.0 mg/kg/injection, schedule: Q04DX003 (ip), vehicle: saline with Tween-80 92 % of control

CC1(C)CCc2c(cc(OCc3ccccc3)c(-c3c(OCc4ccccc4)cc4c(c3O)CCC(C)(C)O4)c2O)O1
inactive: [5] 94 % of control | [7] 93 % of control | [9] 94 % of control

CCC(=O)Nc1cccc(OC(=O)NCC(C)C)c1
inactive: [10] 92 % of control | [11] 94 % of control | [13] 91 % of control
